Experimental data as given in publication PMC12165799, “Antimicrobial peptide developed with machine learning sequence optimization targets drug resistant Staphylococcus aureus in mice” (The Journal of Clinical Investigation, 2025).

How the values were obtained:
[1] = test system: S. aureus MW2 24 h established biofilm; conditions: crystal violet, 24 h established biofilm, 24 h treatment
Protocol: 346 plated onto TSA plates, and incubated plates at 37°C overnight. The next day, we counted the
347 viable bacterial colonies.
(§1) We used TSB medium containing
(§2) 356 bacteria with water as the positive control, while TSB media with sterile water served as the
(§3) 357 negative control. After incubation, we carefully removed the TSB medium and washed the wells
(§4) 358 with PBS (Gibco, MD, USA) to remove loosely attached planktonic cells. We quantified the
(§5) 359 biomass by staining the biofilms with crystal violet following an established protocol and
(§6) 360 quantitated the concentration of peptide that inhibits 50% of biofilm formation (MBIC50)(8). We
(§7) 361 measured the live cell count of the biofilms using XTT dye [2,3-bis(2-methyloxy-4-nitro-5-
362 sulfophenyl)-2H-tertazolium-5-carboxanilide] (ATCC, VA, USA). We calculated the percentage
363 of biofilm growth by normalizing to biofilm growth in wells containing bacteria without peptide
366 Disruption of S. aureus MW2 established biofilms
367 We evaluated the ability of the citropin 1.1-derived peptides to disrupt established biofilms
368 following an established protocol with modifications (5). We prepared exponential cultures of S.
369 aureus MW2 (adjusted to 1 × 10^6 CFU/ml) in TSB medium (supplemented with 0.2% glucose)
370 from overnight grown cultures. We added 100 µl of bacterial culture to flat-bottomed 96-well
371 polystyrene microtiter plates (Cat no. 3595, Corning, NY, USA). We then incubated the plates at
372 37°C for 24 hours in static conditions to allow biofilm formation. After incubation, we carefully
373 pipetted out the TSB medium and washed the wells with PBS (Gibco, MD, USA) to remove
374 loosely attached planktonic cells. We treated the established biofilms in each well with 10 µl of
375 serially diluted 10× peptide solution, followed by the addition of 90 μl TSB medium
376 (supplemented with 0.2% glucose). We incubated the plates for another 24 h at 37°C before
377 processing biomass and live-cell contents. We calculated the concentration of peptide that disrupts
378 50% of established biofilms (MBEC50).

S. aureus MW2 membrane = assay: Propidium iodide-based membrane permeability; assay type: cell-based, Staphylococcus aureus; conditions: S. aureus MW2, 60 minutes
Protocol: 484 min at room temperature in the dark based on a previously established protocol (8). We added 90
485 µl of the dye/bacteria mixture to 10 μl of serially diluted 10× peptide concentration in black, 96-
486 well plates (Cat. no. 3904, Corning, NY, USA) and incubated the plates for 1 hour at room
487 temperature. We measured the fluorescence with excitation and emission wavelengths of 485 nm
488 and 525 nm, respectively in endpoint assay mode using a SpectraMax i3x (Molecular Devices,
489 CA, USA) fluorescence reader.
490 Propidium iodide-based membrane permeability
491 We used a propidium iodide (Thermo Fisher Scientific, MA, USA) fluorescence-based
492 bacterial permeation assay to establish membrane-oriented interactions with the designed peptides
493 based on a previously established protocol (8). We prepared exponential phase S. aureus MW2
494 bacteria and diluted to OD600 = 0.4 in PBS. We added PI dye (final concentration = 2 µM) to the
495 bacteria in 1:10 serial dilutions in black, 96-well plates (Cat. no. 3904, Corning, NY, USA) and
496 incubated the plates for 1 hour at room temperature. We then measured the fluorescence with an
497 excitation wavelength of 584 nm and an emission wavelength of 620 nm in endpoint assay mode
498 using a SpectraMax i3x (Molecular Devices, CA, USA) fluorescence reader.
501 To determine the ATP leakage potential of the peptides, we employed a luciferase-based
502 assay(18). In brief, we washed exponential phase of S. aureus MW2 bacteria three times with PBS
503 (pH 7.4) and adjusted the washed cells to OD600 = 0.4 in PBS. Following treatment of the bacteria
504 with 32 µg/ml of CIT-8 peptide at 37°C for 30 min, we centrifuged the cells at 14,000× g for 5
505 min. We transferred 50 µl of each supernatant fraction to black, clear-bottom, 96-well plates

[2] = test system: S. aureus MW2 biofilm formation; conditions: crystal violet, 24 h
Protocol: 349 Prevention of S. aureus MW2 biofilm formation
350 We evaluated the ability of the citropin 1.1-derived peptides to inhibit biofilm formation
351 following an established protocol with modifications (5). In short, we prepared exponential
352 cultures of S. aureus MW2 (adjusted to OD600 = 0.01) in TSB medium (supplemented with 0.2%
353 glucose) from overnight cultures. We added 90 µl of the bacterial culture to 10 µl of serially diluted
354 10× peptide solution in flat-bottomed 96-well polystyrene microtiter plates (Cat no. Corning 3595,
as §1, §2, §3, §4, §5, §6, §7
362 sulfophenyl)-2H-tertazolium-5-carboxanilide] (ATCC, VA, USA).

[3] = test system: MRSA (S. aureus MW2) biofilm; assay: Biofilm viability assay on solid support (MW2); assay type: cell-based, Staphylococcus aureus; conditions: 40 μg/mL, 24 h established biofilm
[4] = test system: VRSA (S. aureus VRS1) biofilm; assay: Biofilm viability assay on solid support (VRS1); assay type: cell-based, Staphylococcus aureus; conditions: 40 μg/mL, 24 h established biofilm
[5] = test system: S. aureus VRS1 (VRSA) exponential and persister cells; assay: S. aureus persister cell and time-kill assays (VRS1); assay type: cell-based, Staphylococcus aureus; conditions: approximately 1 × 10^7 CFU
Protocol: 305 Minimal inhibitory concentration (MIC) assay
We made serial dilutions of 10×
We determined the MIC using OD600
Accordingly, we added 150 mM NaCl,
319 established protocol (5).
323 aureus VRS1) in PBS. To assess the killing kinetics of CIT-8 in persister cells, we added 1 ml of
324 cell suspension to the wells of a 2-ml deep-well assay block (Cat no. 3960, Corning, NY, USA)
We also included ciprofloxacin (at 10 μg/ml) for S.
326 aureus MW2 and linezolid (100 μg/ml) for S. aureus VRS1 as antibiotic controls. Additionally,
327 we included bithionol (at 10 μg/ml) as a positive control, known for its ability to kill stationary
328 phase persister cells (6). We incubated the plates at 37°C, with shaking at 225 rpm. At specific
329 times (0, 15, 30, 60, and 120 min), we collected 10 μl samples, diluted them serially, and then
330 plated them on tryptic soy agar (TSA) (BD Difco, NJ, USA) plates. We incubated the TSA plates
331 for 18 hours at 37°C for colony counting. We performed these experiments in duplicate. As a
332 comparison, we prepared the exponential cells of S. aureus MW2 and VRS1 in PBS and analyzed
333 their killing kinetics in the same manner as described for persister cells.

S. aureus JE2 = test system: S. aureus JE2; design: method as in PMID 31336137; conditions: S. aureus JE2 (USA300 isolate); cited from earlier work
Source text: In MRSA, antimicrobial resistance is linked to life-threatening infections, such as pneumonia, sepsis, and endocarditis ([48]). The situation is further complicated by the presence of S. aureus bacteria in alternative physiological states such as biofilms and persister cells, which are often neglected in early antimicrobial drug discovery stages even though they contribute substantially to chronic, relapsing infections ([49]).

Molecule | MBEC50 (50% of biomass disrupted) [1] | Propidium iodide fluorescence (membrane permeation) (S. aureus MW2 membrane) | MBIC50 (biomass reduced by 50%) [2] | Reduction of MRSA biofilm burden on solid membrane [3] | Reduction of VRSA biofilm burden on solid membrane [4] | Time to elimination of exponential and persister cells of VRSA [5] | MIC (S. aureus JE2)
CC[C@H](C)[C@H](NC(=O)CN)C(=O)NCC(=O)N[C@@H](C)C(=O)N[C@H](C(=O)N[C@@H](CC(C)C)C(=O)N[C@@H](CCCCN)C(=O)N[C@H](C(=O)N[C@@H](CC(C)C)C(=O)N[C@H](C(=O)N[C@H](C(=O)NCC(=O)N[C@@H](CC(C)C)C(=O)N1CCC[C@H]1C(=O)N[C@@H](C)C(=O)N[C@@H](CC(C)C)C(=O)N[C@H](C(=O)N[C@@H](CO)C(=O)N[C@@H](Cc1c[nH]c2ccccc12)C(=O)N[C@H](C(=O)N[C@@H](CCCCN)C(=O)N[C@@H](CCCNC(=N)N)C(=O)N[C@@H](CCCCN)C(=O)N[C@@H](CCCNC(=N)N)C(=O)N[C@@H](CCC(N)=O)C(=O)N[C@@H](CCC(N)=O)C(N)=O)[C@@H](C)CC)[C@@H](C)CC)[C@@H](C)O)[C@@H](C)O)C(C)C)C(C)C [melittin, reference compound] | 2.3 µg/mL | elevated fluorescence levels | 4.8 µg/mL | 1.85 logs | 3.9 logs | ≤ 120 min | 
citropin 1.1 |  |  |  |  |  |  | 32 µg/mL
